# Patent US4610976A, “Porcine GRF” (The Salk Institute for Biological Studies, priority 1983, dated 1986)
# Test system: cells of rat pituitary glands
# Assay: in vitro growth hormone release assay in rat pituitary cell monolayer cultures (ir GH by radioimmunoassay)
# Type: cell-based
# Conditions: equimolar concentrations, side-by-side with synthetic hGRF(1-44)-NH2; incubation 3 to 4 hours; ir GH in culture medium
# Description: To determine the effectiveness of the peptide to promote the release of growth hormone, in vitro assays are carried out using synthetic hGRF(1-44)-NH2 in side-by-side comparison with equimolar concentrations of the extracted and purified pGRF(1-44) of Example II and of a GRF Reference Standard having a known effectiveness to promote the release of growth hormone from pituitary cells. The GRF Reference standard is described and defined in Brazeau, et al., Endocrinology, Vol. 110, A538(1982) and is an amount of a preparation of rat hypothalamic origin that produces a half-maximal response in terms of GH release in a pituitary cell monolayer bioassay. Cultures are used which include cells of rat pituitary glands removed some four to five days previously. Both cultures of a defined standard medium and cultures which are considered optimal for the secretion of growth hormone are used for the comparative testing, in the general manner described in Brazeau, et al. Regulatory Peptides, 1, 255, 1981. Incubation with the substance to be tested is carried out for 3 to 4 hours, and aliquots of the culture medium are removed and processed to measure their contents in inmunoreactive GH(ir GH) by a well-characterized radioimmunoassay.
substance,measurement,value
"Tyr-Ala-Asp-Ala-Ile-Phe-Thr-Asn-Ser-Tyr-Arg-Lys-Val-Leu-Gly-Gln-Leu-Ser-Ala-Arg-Lys-Leu-Leu-Gln-Asp-Ile-Met-Ser-Arg-Gln-Gln-Gly-Glu-Arg-Asn-Gln-Glu-Gln-Gly-Ala-Arg-Val-Arg-Leu (YADAIFTNSYRKVLGQLSARKLLQDIMSRQQGERNQEQGARVRL; printed: Tyr-Ala-Asp-Ala-Ile-Phe-Thr-Asn-Ser-Tyr-Arg-Lys-Val-Leu-Gly-Gln-Leu-Ser-Ala-Arg-Lys-Leu-Leu-Gln-Asp-Ile-Met-Ser-Arg-Gln-Gln-Gly-Glu-Arg-Asn-Gln-Glu-Gln-Gly-Ala-Arg-Val-Arg-Leu) [pGRF(1-44), 44-residue polypeptide isolated from purified extracts of porcine hypothalami]","intrinsic biological activity to promote the release of growth hormone, compared with synthetic hGRF(1-44)-NH2",full intrinsic biological activity of the synthetic peptide
same,"potency to promote the release of growth hormone, compared with synthetic hGRF(1-44)-NH2",close to the same potency
